Where two headings read alike, the source gives them in different places.
Assays:
[1] = target: 5-HT2A serotonin receptor (Homo sapiens, UniProt P28223); experiment: 5-HT2A serotonin receptor radioligand binding assay (3H-ketanserin)
Description: Binding assays were conducted in which the affinity of each of the compounds of interest for the 5-HT2A serotonin receptor was tested. Assays were conducted with the 5-HT2A receptor in buffer consisting of 50 mM Tris-Cl, 0.5 mM EDTA, 5 mM MgCl2, pH=7.4.

[2] = target: H1 histamine receptor (Homo sapiens, UniProt P35367); experiment: H1 histamine receptor radioligand binding assay (3H-pyrilamine)
Description: Binding assays were also conducted in which the affinity of selected compounds of interest for the H1 histamine receptor was tested. […] The H1 determinations used ^3H-pyrilamine as the radioligand with chlorpheniramine as the reference compound.

[3] = target: norepinephrine transporter (Homo sapiens, UniProt P23975); experiment: Affinity for norepinephrine transporter; assay type: binding
[4] = target: T1, 5-HT2c receptor (Homo sapiens, UniProt P28335); experiment: Affinity for 5-HT2c receptor; assay type: binding
T1 sequence (P28335 33-458): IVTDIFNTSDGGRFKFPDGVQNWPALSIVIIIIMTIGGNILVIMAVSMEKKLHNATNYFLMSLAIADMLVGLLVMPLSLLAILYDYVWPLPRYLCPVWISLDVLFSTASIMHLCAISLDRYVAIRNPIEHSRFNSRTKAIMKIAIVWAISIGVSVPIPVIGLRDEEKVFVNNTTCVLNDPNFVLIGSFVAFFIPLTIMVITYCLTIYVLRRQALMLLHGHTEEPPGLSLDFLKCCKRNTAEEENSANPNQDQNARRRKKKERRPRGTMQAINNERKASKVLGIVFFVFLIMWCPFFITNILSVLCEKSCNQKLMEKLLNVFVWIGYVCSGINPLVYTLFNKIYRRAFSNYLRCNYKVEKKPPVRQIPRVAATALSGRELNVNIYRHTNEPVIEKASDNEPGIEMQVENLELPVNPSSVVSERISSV

[5] = target: serotonin transporter (Homo sapiens, UniProt P31645); experiment: Affinity for serotonin transporter; assay type: binding
[6] = target: 5-HT2 receptor (Homo sapiens, UniProt P28223); experiment: Affinity for 5-HT2 receptors; assay type: binding
[7] = target: dopamine D2 receptor (Homo sapiens, UniProt P14416); experiment: Affinity for dopamine D2 receptor; assay type: binding
[8] = 3H-pyrilamine radioligand, chlorpheniramine reference, read-out: H1 Ki
[9] = in words, read-out: affinity class for histamine H1 receptor

Sequence of H1 histamine receptor (P35367 whole entry): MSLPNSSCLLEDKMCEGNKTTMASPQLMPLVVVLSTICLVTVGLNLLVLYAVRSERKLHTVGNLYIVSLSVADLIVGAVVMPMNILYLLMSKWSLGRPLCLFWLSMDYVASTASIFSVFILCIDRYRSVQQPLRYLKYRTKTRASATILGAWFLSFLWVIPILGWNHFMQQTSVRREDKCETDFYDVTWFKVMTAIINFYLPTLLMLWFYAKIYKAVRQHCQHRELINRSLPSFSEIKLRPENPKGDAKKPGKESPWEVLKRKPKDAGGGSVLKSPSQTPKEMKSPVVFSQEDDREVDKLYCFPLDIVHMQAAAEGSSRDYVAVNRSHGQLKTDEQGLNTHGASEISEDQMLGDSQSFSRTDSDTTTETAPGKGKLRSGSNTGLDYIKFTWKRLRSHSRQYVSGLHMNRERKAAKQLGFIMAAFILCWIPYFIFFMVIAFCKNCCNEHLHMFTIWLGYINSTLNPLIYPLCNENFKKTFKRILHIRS
Sequence of 5-HT2A serotonin receptor (P28223 whole entry): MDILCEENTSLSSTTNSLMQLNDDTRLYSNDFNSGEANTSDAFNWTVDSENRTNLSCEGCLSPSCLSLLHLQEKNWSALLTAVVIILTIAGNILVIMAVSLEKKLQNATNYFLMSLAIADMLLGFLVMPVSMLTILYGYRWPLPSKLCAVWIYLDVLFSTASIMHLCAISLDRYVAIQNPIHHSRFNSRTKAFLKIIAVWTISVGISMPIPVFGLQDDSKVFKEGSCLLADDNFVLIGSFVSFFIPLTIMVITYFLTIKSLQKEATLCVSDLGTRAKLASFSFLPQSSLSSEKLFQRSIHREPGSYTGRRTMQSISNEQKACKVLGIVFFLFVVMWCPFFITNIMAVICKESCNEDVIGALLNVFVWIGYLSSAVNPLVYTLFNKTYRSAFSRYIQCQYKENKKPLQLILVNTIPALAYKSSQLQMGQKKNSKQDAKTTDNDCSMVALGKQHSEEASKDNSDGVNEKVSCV
Sequence of 5-HT2 receptor (P28223 whole entry): as above
Sequence of serotonin transporter (P31645 whole entry): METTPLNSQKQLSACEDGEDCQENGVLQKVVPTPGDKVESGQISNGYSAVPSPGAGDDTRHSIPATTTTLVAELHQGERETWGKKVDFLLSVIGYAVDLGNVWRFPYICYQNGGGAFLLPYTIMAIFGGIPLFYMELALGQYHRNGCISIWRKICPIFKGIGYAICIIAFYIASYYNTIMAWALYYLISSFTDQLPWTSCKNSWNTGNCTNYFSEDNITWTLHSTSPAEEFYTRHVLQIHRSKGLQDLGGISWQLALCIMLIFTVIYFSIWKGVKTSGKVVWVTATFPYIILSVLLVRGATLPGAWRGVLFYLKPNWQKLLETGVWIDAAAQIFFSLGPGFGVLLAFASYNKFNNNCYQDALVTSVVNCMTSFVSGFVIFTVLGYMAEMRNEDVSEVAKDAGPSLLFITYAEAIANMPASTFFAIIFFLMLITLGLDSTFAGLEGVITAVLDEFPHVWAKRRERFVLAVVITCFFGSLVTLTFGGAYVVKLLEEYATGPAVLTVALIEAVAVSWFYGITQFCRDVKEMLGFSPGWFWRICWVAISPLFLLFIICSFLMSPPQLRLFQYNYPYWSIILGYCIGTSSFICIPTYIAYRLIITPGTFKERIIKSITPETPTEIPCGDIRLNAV
Sequence of norepinephrine transporter (P23975 whole entry, species assumed): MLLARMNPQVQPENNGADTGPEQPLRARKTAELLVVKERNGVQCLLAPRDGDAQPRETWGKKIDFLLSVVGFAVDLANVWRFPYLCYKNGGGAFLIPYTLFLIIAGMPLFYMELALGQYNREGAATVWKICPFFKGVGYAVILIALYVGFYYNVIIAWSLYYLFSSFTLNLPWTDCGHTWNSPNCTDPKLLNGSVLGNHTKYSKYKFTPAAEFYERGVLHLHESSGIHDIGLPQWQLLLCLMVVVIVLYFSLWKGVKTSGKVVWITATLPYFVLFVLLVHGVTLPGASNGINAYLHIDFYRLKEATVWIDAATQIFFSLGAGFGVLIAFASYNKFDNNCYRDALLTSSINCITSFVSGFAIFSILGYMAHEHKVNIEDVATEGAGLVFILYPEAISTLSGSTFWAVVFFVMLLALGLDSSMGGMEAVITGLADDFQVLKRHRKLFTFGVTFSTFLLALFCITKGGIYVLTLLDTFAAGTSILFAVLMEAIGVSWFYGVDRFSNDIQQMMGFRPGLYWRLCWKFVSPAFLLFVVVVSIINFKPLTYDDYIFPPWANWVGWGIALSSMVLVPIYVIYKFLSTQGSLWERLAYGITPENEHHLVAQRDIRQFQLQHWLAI
Sequence of dopamine D2 receptor (P14416 whole entry, species assumed): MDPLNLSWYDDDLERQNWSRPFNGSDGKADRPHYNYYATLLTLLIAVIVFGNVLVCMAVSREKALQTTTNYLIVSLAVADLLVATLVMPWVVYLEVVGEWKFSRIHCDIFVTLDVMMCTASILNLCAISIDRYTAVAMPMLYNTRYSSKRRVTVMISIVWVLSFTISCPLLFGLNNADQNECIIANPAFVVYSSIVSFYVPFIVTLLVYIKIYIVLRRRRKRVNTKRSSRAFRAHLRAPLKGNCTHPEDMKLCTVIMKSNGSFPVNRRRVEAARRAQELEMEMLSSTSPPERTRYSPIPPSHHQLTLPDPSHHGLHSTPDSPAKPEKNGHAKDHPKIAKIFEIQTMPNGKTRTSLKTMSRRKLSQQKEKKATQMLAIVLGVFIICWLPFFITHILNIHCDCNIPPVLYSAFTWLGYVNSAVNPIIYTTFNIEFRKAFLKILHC

| Ki [1] | Structure (SMILES) | Ki [2, 8] | Ki [2, 9] | further results |
| --- | --- | --- | --- | --- |
| 220 nM | c1ccc(CN2CCC3(C2)c2ccccc2Cc2ccccc23)cc1 [Compound 7, Spiro[9,10-dihydroanthracene]-9,3′-(1-benzyl)-pyrrolidine] |  |  |  |
| 68 nM | CC1(C)c2ccccc2C2(CCNC2)c2ccccc21 [Compound 12, Spiro[-(10,10-dimethyl)-9,10-dihydroanthracene]-9,3′-pyrrolidine] |  |  |  |
| 998 nM | c1ccc(CCCc2ccc3c(c2)Cc2ccccc2C32CCN(Cc3ccccc3)C2)cc1 (stereo not drawn) [Compound 22, 3-(3-Phenylpropyl)-9,9-[spiro-3′-(n-benzyl)-pyrrolidinyl]-9,10-dihydroanthracene] |  |  |  |
| 9.2 nM | Oc1ccc2c(c1)Cc1ccccc1C21CCNC1 (stereo not drawn) [Compound 19, Spiro[-(3-hydroxy)-9,10-dihydroanthracene]-9,3′-pyrrolidine] |  |  |  |
| 46 nM | CN1CCC2(C1)c1ccccc1Cc1ccccc12 [Compound 6, Spiro[9,10-dihydroanthracene]-9,3′-(1-methyl)-pyrrolidine] |  |  |  |

The remaining lines, values behind:

| Structure (SMILES) | Ki [1] | Ki [2, 8] | Ki [2, 9] | further results |
| --- | --- | --- | --- | --- |
| CCCCCCc1ccc2c(c1)Cc1ccccc1C21CCN(Cc2ccccc2)C1 (stereo not drawn) [Compound 20, 3-n-Hexyl-9,9-[spiro-3′-(n-benzyl)-pyrrolidinyl]-9,10-dihydroanthracene] | 2030 nM |  |  |  |
| c1ccc2c(c1)Sc1ccccc1C21CCNC1 [Compound 36, Spiro[thioxanthenyl]-9,3′-pyrrolidine] | 5 nM | 6 nM | ≤ 100 nM |  |
| c1ccc(-c2ccc3c(c2)Cc2ccccc2C32CCNC2)cc1 (stereo not drawn) [Compound 25, 3-(3-Phenyl)-9,9-[spiro-3′-pyrrolidinyl]-9,10-dihydroanthracene] | 18 nM |  |  |  |
| c1ccc2c(c1)Cc1ccccc1C21CCNC1 [Compound 5, Spiro[9,10-dihydroanthracene]-9,3′-pyrrolidine] | 3.8 nM | 8.5 nM | ≤ 100 nM | Ki [3]: > 10000 nM; Ki [4]: 1 to 500 nM; Ki ([4]; read-out: Ki for 5-HT2c receptor): 24 nM; Ki [5]: > 10000 nM; Ki [6]: 1 to 500 nM; Ki ([6]; read-out: Ki for 5-HT2 receptors): 4 nM; Ki [7]: 5040 nM |
| c1ccc2c(c1)Oc1ccccc1C21CCNC1 [Compound 30, Spiro[xanthenyl]-9,3′-pyrrolidine] | 40 nM | 51 nM | ≤ 100 nM |  |
| c1ccc(CCCc2ccc3c(c2)Cc2ccccc2C32CCNC2)cc1 (stereo not drawn) [Compound 23, 3-(3-Phenylpropyl)-9,9-[spiro-3′-pyrrolidinyl]-9,10-dihydroanthracene] | 3.5 nM |  |  |  |
| CCCCCCc1ccc2c(c1)Cc1ccccc1C21CCNC1 (stereo not drawn) [Compound 21, 3-n-Hexyl-9,9-[spiro-3′-pyrrolidinyl]-9,10-dihydroanthracene] | 6 nM | 1600 nM |  |  |
| Oc1ccc2c(c1)Cc1ccccc1C21CCN(Cc2ccccc2)C1 (stereo not drawn) [Compound 18, 3-Hydroxy-9,9-[spiro-3′-(n-benzyl)-pyrrolidinyl]-9,10-dihydroanthracene] | 330 nM |  |  |  |
| COc1ccc2c(c1)Cc1ccccc1C21CCNC1 (stereo not drawn) [Compound 17, 3-Methoxy-9,9-[spiro-3′-pyrrolidinyl]-9,10-dihydro-anthracene] | 3.7 nM | 40 nM | ≤ 100 nM |  |
| COc1ccc2c(c1)Cc1ccccc1C21CCN(Cc2ccccc2)C1 (stereo not drawn) [Compound 16, 3-Methoxy-9,9-[spiro-3′-(n-benzyl)-pyrrolidinyl]-9,10-dihydroanthracene] | 1000 nM | 74 nM | ≤ 100 nM |  |

Source: patent publication US6806283B2, “Selective serotonin receptor antagonists and therapeutic applications thereof” (Virginia Commonwealth University, priority 2002, dated 2004)
